For data set [1], the target named is T1, [3H]-citalopram binding sites on rat cerebral cortical membranes (serotonin reuptake) (Rattus norvegicus, UniProt P31652).
T1 construct: from tissue; host or cells: rat cerebral cortex membranes
As to the kind of experiment: [3H]-Citalopram binding assay.

Setting [2] is: displacement of [3H]-citalopram, rat cerebral cortical membranes, 37° C. for 90 minutes, read-out: Ki.

Where a name gives a salt, the structure may show the parent alone. Read-outs that look alike come from different tables or passages of the source.

For orientation: melting point means the temperature, or range, at which the solid turns liquid. The term Ki denotes a dissociation constant, usually derived from enzyme kinetics or from competition with a known ligand.

T1 sequence (P31652 whole entry): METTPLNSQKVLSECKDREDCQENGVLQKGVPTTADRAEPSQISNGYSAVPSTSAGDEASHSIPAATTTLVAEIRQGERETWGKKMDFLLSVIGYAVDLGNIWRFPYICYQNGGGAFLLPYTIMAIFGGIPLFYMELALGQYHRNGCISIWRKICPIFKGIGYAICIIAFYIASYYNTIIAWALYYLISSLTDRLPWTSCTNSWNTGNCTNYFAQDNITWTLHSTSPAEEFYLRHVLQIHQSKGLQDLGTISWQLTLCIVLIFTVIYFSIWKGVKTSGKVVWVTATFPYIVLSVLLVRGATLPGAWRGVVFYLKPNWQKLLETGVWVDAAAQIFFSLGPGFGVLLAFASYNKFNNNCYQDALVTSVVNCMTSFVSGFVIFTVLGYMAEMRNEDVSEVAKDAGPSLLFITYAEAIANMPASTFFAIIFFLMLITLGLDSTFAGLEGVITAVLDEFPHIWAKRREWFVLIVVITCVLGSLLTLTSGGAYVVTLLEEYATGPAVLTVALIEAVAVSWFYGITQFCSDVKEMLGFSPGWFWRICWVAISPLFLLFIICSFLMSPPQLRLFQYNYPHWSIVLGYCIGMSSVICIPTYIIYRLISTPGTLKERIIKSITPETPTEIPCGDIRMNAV

With `CN(C)C[C@H]1[C@H]2CC[C@H](C2)[C@@H]1c1ccc2ccsc2c1` (as salt: hydrochloride), the melting point was in the range of 240 to 242 °C.

As for `Cc1csc2ccc([C@@H]3[C@H]4CC[C@H](C4)[C@H]3CN(C)C)cc12` (as salt: hydrochloride) [N,N-dimethyl[(1R,2R,3R,4S)-3-(3-methyl-1-benzothien-5-yl)bicyclo[2.2.1]hept-2-yl]methanamine], the melting point fell in the range of 250 to 252 °C.

`CN(C)C[C@H]1[C@H]2CC[C@H](C2)[C@@H]1c1ccc2cc(F)ccc2c1` (as salt: hydrochloride) [[(1S,2S,3S,4R)-3-(6-fluoro-2-naphthyl)bicyclo[2.2.1]hept-2-yl]-N,N-dimethylmethanamine] displayed a melting point of 137 to 138 °C.

For `CN(C)CC1C2CCC(C2)C1c1ccc2ccccc2c1` (stereo not drawn) (as salt: hydrochloride) [cis- N,N-dimethyl(3-naphthalen-2-ylbicyclo[2.2.1]hept-2-yl)m] [cis-N,N-dimethyl (3-naphthalen-2-ylbicyclo[2.2.1]hept-2-yl)methanamine], the melting point fell in the range of 255 to 257 °C.

Turning to `CN(C)CC1C2CCC(C2)C1c1ccc2ccccc2c1` (stereo not drawn) (as salt: hydrochloride) [trans-endo-N,N-dimethyl(3-naphthalen-2-ylbicyclo[2.2.1]hept-] [trans-endo-N,N-dimethyl(3-naphthalen-2-ylbicyclo[2.2.1]hept-2-yl)methanamine], the melting point fell in the range of 249 to 250 °C.

`Cc1csc2ccc([C@@H]3[C@H]4CC[C@H](C4)[C@H]3CN(C)C)cc12` [N,N-dimethyl[(1R,2R,3R,4S)-3-(3-methyl-1-benzothien-5-yl)bicyclo[2.2.1]hept-2-yl]methanamine]: the Ki in data set [1] (setting [2]) is < 100 nM.

For `CN(C)C[C@H]1[C@H]2CC[C@H](C2)[C@@H]1c1cc2ccc(F)cc2s1` [[(1S,2S,3S,4R)-3-(6-fluoro-1-benzothien-2-yl)bicyclo[2.2.1]hept-2-yl)-N,N-dimethylmethanamine], the Ki in data set [1] (setting [2]) is < 100 nM.

With `CN(C)C[C@H]1[C@H]2CC[C@H](C2)[C@@H]1c1csc2cc(F)ccc12` [[(1S,2S,3S,4R)-3-(6-fluoro-1-benzothien-3-yl)bicyclo[2.2.1]hept-2-yl]-N,N-dimethylmethanamine], the Ki in data set [1] (setting [2]) was < 100 nM.

Regarding `CN(C)C[C@H]1[C@H]2CC[C@H](C2)[C@@H]1c1ccc2cc(F)ccc2c1` [[(1S,2S,3S,4R)-3-(6-fluoro-2-naphthyl)bicyclo[2.2.1]hept-2-yl]-N,N-dimethylmethanamine], in data set [1], the Ki is < 100 nM.

Turning to `NCC1C2CCC(CC2)C1c1ccc2ccccc2c1` (stereo not drawn) [trans-(3-Naphthalen-2-ylbicyclo[2.2 .2]oct-2-yl)methanamine], the Ki in data set [1] (setting [2]) is < 100 nM.

On to `CN(C)CC1C2CCC(C2)C1c1ccc2ccccc2c1` (stereo not drawn) [trans-endo-N,N-dimethyl(3-naphthalen-2-ylbicyclo[2.2.1]hept-2-yl)methanamine], for which, in data set [1], the Ki is < 100 nM.

As to `CNCC1C2CCC(C2)C1c1ccc2ccccc2c1` (stereo not drawn) [trans-endo-N-methyl (3-naphthalen-2-ylbicyclo [2.2.1]hept-2-yl)methanamine], in data set [1], the Ki was < 100 nM.

Values taken from patent publication US6384281B1, “3-bicycloaryl-2-aminomethyl bicycloalkanes as serotonine reuptake inhibitors” (Eli Lilly and Company, priority 1999, dated 2002).
